For 41 molecules, IC50 results are on record in patent US11266643B2, “Triaryl compounds for treatment of PD-L1 diseases” (CHEMOCENTRYX, INC., priority 2019, dated 2022).

Sequence of human PD-L1 (Q9NZQ7 19-239): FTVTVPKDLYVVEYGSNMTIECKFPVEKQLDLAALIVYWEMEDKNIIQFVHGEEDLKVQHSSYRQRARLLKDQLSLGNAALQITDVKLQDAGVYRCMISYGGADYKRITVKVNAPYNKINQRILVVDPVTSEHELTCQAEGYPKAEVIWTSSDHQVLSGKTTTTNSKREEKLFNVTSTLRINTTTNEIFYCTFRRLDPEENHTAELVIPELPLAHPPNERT

For the first experiment, the target named is human PD-L1 (Homo sapiens (Human), UniProt Q9NZQ7). Description: Enzyme-Linked Immunosorbent Assay (ELISA), PD-1/PD-L1 binding. The note with it: PD-1/PD-L1 ELISA, human PD-L1 coated plates, Table 1. The procedure, abridged:
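Competitive ELISA: human PD-1 […] (0.31 μg/mL) and serially diluted compounds (1:5) incubated 1 h at 37° C on wells coated with […] human PD-L1. Signal via streptavidin-HRP/TMB, stopped with 2 N H2SO4, measured as A450.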
On the technique in general: An ELISA detects its analyte on a solid surface through an enzyme-linked reagent.
Turning to `COc1cc(-c2cccc(-c3cccc(Nc4nccc5c4C(=O)N(C)CC5)c3C)c2C)cc(F)c1CNCCO` [Example 1.215], the IC50 – broadly, the concentration needed to halve the response being measured – was in the range of 0.01 to 1 µM.

Consider `COc1cc(-c2cccc(-c3cccc(NC(=O)c4ccc(C(=O)O)cn4)c3C)c2C)cc(F)c1CN` [Example 1.352], for which the IC50 was in the range of 0.01 to 1 µM.

Turning to `COc1cc(-c2cccc(-c3cccc(NC(=O)c4cnc(C(=O)O)cn4)c3C)c2C)cc(F)c1CN` [Example 1.322], the IC50 is below 0.01 µM.

Consider `COc1cc(-c2cccc(-c3cccc(NC(=O)c4c[nH]c(=O)n(C)c4=O)c3C)c2C)cc(F)c1CN1CC(O)C1` [Example 1.271], for which the IC50 is below 0.01 µM.

In turn, `COc1cc(-c2cccc(-c3cccc(NC(=O)c4cncn(C)c4=O)c3C)c2C)cc(F)c1CNC[C@@H](C)O` [Example 1.203] had an IC50 below 0.01 µM.

On to `COc1cc(-c2cccc(-c3cccc(NC(=O)C4CNCCO4)c3C)c2C)cc(F)c1CNCCO` (centres unmarked) [Example 1.324], for which the IC50 fell in the range of 0.01 to 1 µM.

Molecule `COc1cc(-c2cccc(-c3cccc(NC(=O)c4c[nH]c(=O)n(C)c4=O)c3C)c2C)cc(F)c1CN[C@H](C)CO` [Example 1.225] returned an IC50 below 0.01 µM.

As for `COc1cc(-c2cccc(-c3cccc(Nc4nccc5c4C(=O)N(C)CC5)c3C)c2C)cc(F)c1CN1CC(C(=O)OC(C)C)C1` [Example 1.219], the IC50 was in the range of 0.01 to 1 µM.

For the molecule `COc1cc(-c2cccc(-c3cccc(NC(=O)c4ccnc(C)n4)c3C)c2C)cc(F)c1CN1CC(C(=O)O)C1` [Example 1.321], the IC50 is below 0.01 µM.

`COc1cc(-c2cccc(-c3cccc(NC(=O)c4ccccn4)c3C)c2C)cc(F)c1CN1CC[C@@H](C(=O)O)C1` [Example 1.366] returned a half-inhibitory concentration (IC50) below 0.01 µM.

The experiment is the same for the next values; noted with them: human PD-1/PD-L1 ELISA, plates coated with human PD-L1.
`COc1cc(-c2cccc(-c3cccc(NC(=O)c4c[nH]c(=O)n(C)c4=O)c3C)c2C)cc(F)c1CNC1CCNC(=O)C1` (centres unmarked) [Example 1.096] gave an IC50 below 0.01 µM.

Regarding `COc1cc(-c2cccc(-c3cccc(NC(=O)C4=CNCN(C)C4=O)c3C)c2C)cc(F)c1CNC[C@@H]1CCC(=O)N1C` [Example 1.194], the IC50 lay within 0.01 to 1 µM.

In turn, `COc1cc(-c2cccc(-c3cccc(NC(=O)c4cccn(C)c4=O)c3C)c2C)cc(F)c1CN(C)C[C@@H]1CCC(=O)N1` [Example 1.167] showed an IC50 below 0.01 µM.

The molecule `COc1cc(-c2cccc(-c3cccc(NC(=O)c4cncn(C)c4=O)c3C)c2C)cc(F)c1CNC1COC1` [Example 1.197] came in with an IC50 below 0.01 µM.

As to `COc1cc(-c2cccc(-c3cccc(NC(=O)c4cncn(C)c4=O)c3C)c2C)cc(F)c1CN[C@@H]1CCOC[C@@H]1O` [Example 1.066], the IC50 is below 0.01 µM.

For `COc1cc(-c2cccc(-c3cccc(NC(=O)c4c[nH]c(=O)n(C)c4=O)c3C)c2C)cc(F)c1CNCCN1CCCC1=O` [Example 1.131], the IC50 was below 0.01 µM.

Turning to `COc1cc(-c2cccc(-c3cccc(Nc4nccc5nccnc45)c3C)c2Cl)cc(F)c1CNC[C@@H]1CCC(=O)N1` [Example 1.027], the IC50 is below 0.01 µM.

In turn, `COc1cc(-c2cccc(-c3cccc(NC(=O)c4c[nH]c(=O)n(C)c4=O)c3C)c2C)cc(F)c1CN[C@H]1CNC(=O)C1` [Example 1.143] came in with an IC50 below 0.01 µM.

Regarding `COc1cc(-c2cccc(-c3cccc(NC(=O)c4cn(C)c(=O)n(C)c4=O)c3C)c2C)cc(F)c1CNCCC1CCC(=O)N1` (centres unmarked) [Example 1.115], the IC50 was below 0.01 µM.

Consider `COc1cc(-c2cccc(-c3cccc(NC(=O)c4nn(C)c(=O)n(C)c4=O)c3C)c2C)cc(F)c1CNC1CNC(=O)NC1=O` (centres unmarked) [Example 1.045], for which the IC50 fell in the range of 0.01 to 1 µM.

Take `COc1cc(-c2cccc(-c3cccc(NC(=O)c4nn(C)c(=O)n(C)c4=O)c3C)c2C)cc(F)c1CN[C@H]1CCC(=O)NC1` [Example 1.089]: the IC50 is below 0.01 µM.

Take `COc1cc(-c2cccc(-c3cccc(NC(=O)c4nc5c(s4)CN(CCO)CC5)c3F)c2C)cc(F)c1CNCCO` [Example 1.400]: the IC50 was below 0.01 µM.

Consider `COc1cc(-c2cccc(-c3cccc(NC(=O)c4cccn(C)c4=O)c3C)c2C)cc(F)c1CN(C)CCO` [Example 1.164], for which the IC50 is below 0.01 µM.

`COc1cc(-c2cccc(-c3cccc(NC(=O)c4cn(C)c(=O)n(C)c4=O)c3C)c2C)cc(F)c1CNC1CC(=O)NC1=O` (centres unmarked) [Example 1.121] returned an IC50 of 0.01 to 1 µM.

For the molecule `COc1cc(-c2cccc(-c3cccc(NC(=O)c4cccn(C)c4=O)c3C)c2C)cc(F)c1CN[C@@H]1CNC(=O)C1` [Example 1.171], the IC50 was below 0.01 µM.

Turning to `COc1cc(-c2cccc(-c3cccc(NC(=O)c4nn(C)c(=O)n(C)c4=O)c3C)c2C)cc(F)c1CN[C@@H]1CCC(=O)NC1=O` [Example 1.058], the half-inhibitory concentration (IC50) lay within 0.01 to 1 µM.

For `COc1cc(-c2cccc(-c3cccc(Nc4nccc5nccnc45)c3Cl)c2C)cc(F)c1CN[C@@H]1CNC(=O)C1` [Example 1.023], the IC50 was in the range of 0.01 to 1 µM.

For the molecule `COc1cc(-c2cccc(-c3cccc(NC(=O)c4cn(C)c(=O)n(C)c4=O)c3Cl)c2C)cc(F)c1CNCC(C)(C)C(N)=O` [Example 1.032], the IC50 is below 0.01 µM.

The experiment is the same for the next values; noted with them: plate-coated human PD-L1, biotinylated Human PD-1, absorbance at 450 nm.
In the case of `COc1cc(-c2cccc(-c3cccc(NC(=O)c4cn(C)c(=O)n(C)c4=O)c3C)c2Cl)cc(F)c1CN1CCC[C@@H](C(=O)O)C1` [Example 2.015], the IC50 was below 0.01 µM.

Molecule `COc1cc(-c2cccc(-c3cccc(NC(=O)c4cn(C)c(=O)n(C)c4=O)c3Cl)c2Cl)cc(F)c1CN[C@H]1CCOC[C@@H]1O` [Example 2.082] yielded an IC50 below 0.01 µM.

Take `COc1cc(-c2cccc(-c3cccc(NC(=O)c4cn(C)c(=O)n(C)c4=O)c3C)c2Cl)cc(F)c1CN1CCC(O)CC1` [Example 2.020]: the IC50 is below 0.01 µM.

In turn, `COc1cc(-c2cccc(-c3cccc(NC(=O)c4cn(C)c(=O)n(C)c4=O)c3Cl)c2F)cc(F)c1CNC[C@@H]1CCC(=O)N1` [Example 2.079] showed an IC50 below 0.01 µM.

In the case of `COc1cc(-c2cccc(-c3cccc(NC(=O)c4cn(C)c(=O)n(C)c4=O)c3C)c2Cl)cc(F)c1CNCC1(O)CC1` [Example 2.056], the IC50 was below 0.01 µM.

On to `COc1cc(-c2cccc(-c3cccc(NC(=O)c4cn(C)c(=O)n(C)c4=O)c3C)c2Cl)cc(F)c1CN1CC2(CCNC2=O)C1` [Example 2.012], for which the IC50 was below 0.01 µM.

`COc1cc(-c2cccc(-c3cccc(NC(=O)c4cn(C)c(=O)n(C)c4=O)c3C)c2Cl)cc(F)c1CNC1CCOCC1` [Example 2.083] returned an IC50 below 0.01 µM.

On to `COc1cc(-c2cccc(-c3cccc(NC(=O)c4cn(C)c(=O)n(C)c4=O)c3C)c2Cl)cc(F)c1CN[C@@H]1COCC[C@H]1O` [Example 2.086], for which the IC50 is below 0.01 µM.

For `COc1cc(-c2cccc(-c3cccc(NC(=O)c4cn(C)c(=O)n(C)c4=O)c3C)c2Cl)cc(F)c1CN[C@H]1COCC[C@@H]1O` [Example 2.088], the IC50 is below 0.01 µM.

The molecule `COc1cc(-c2cccc(-c3cccc(NC(=O)c4cn(C)c(=O)n(C)c4=O)c3C)c2Cl)ccc1CN[C@@H]1CCOC[C@@H]1O` [Example 2.054] showed an IC50 below 0.01 µM.

In turn, `COc1cc(-c2cccc(-c3cccc(NC(=O)c4c[nH]c(=O)n(C)c4=O)c3C)c2Cl)cc(F)c1CNCC1(C(N)=O)CC1` [Example 2.031] yielded an IC50 below 0.01 µM.

`COc1cc(-c2cccc(-c3cccc(NC(=O)c4c[nH]c(=O)n(C)c4=O)c3Cl)c2Cl)cc(F)c1CN[C@H]1CCOC[C@H]1OC` [Example 2.022]: the IC50 was below 0.01 µM.

`COc1cc(-c2cccc(-c3cccc(NC(=O)c4cn(C)c(=O)n(C)c4=O)c3C)c2Cl)cc(F)c1CN1CCC(C)(O)CC1` [Example 2.018] came in with an IC50 below 0.01 µM.
